Biological target: T1, human mAChR M4 (Homo sapiens, UniProt P08173)
T1 construct: expressed in transfected cells
T1 sequence (P08173 1-479): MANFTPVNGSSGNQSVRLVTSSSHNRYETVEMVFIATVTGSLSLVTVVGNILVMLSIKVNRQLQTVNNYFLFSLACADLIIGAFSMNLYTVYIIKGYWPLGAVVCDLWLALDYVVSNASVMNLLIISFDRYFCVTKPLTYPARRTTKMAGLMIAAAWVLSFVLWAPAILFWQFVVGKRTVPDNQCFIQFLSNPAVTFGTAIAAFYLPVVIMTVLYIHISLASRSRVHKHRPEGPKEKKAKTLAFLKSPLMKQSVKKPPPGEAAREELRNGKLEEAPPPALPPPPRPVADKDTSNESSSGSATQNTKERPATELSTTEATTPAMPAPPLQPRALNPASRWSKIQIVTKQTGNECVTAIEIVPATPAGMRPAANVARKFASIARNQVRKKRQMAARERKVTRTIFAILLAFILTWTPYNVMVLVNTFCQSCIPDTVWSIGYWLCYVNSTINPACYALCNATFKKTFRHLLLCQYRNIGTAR
Assay: mAChR M4 cell-based functional assay (calcium mobilization, CHO-K1 hM4-Gqi5 cells)
Settings: for Emax at 30 µM: CHO-K1, % ACh maximum at 30 μM, human M4; for EC50: positive allosteric modulator activity, increase in the EC20 acetylcholine response, CHO-K1 hM4-Gqi5 cells, read-out: Human M4 EC50
Method in brief: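 CHO-K1 cells stably expressing human M4 with chimeric Gqi5, loaded with Fluo-4 AM; compounds given as 11-point 1:3 curves and calcium flux read on FDSS at 1 Hz. Acetylcholine EC20 added at 144 s, EC80 at 230 s; agonist, PAM (EC20 potentiation) and antagonist (EC80 inhibition) EC50/Emax from four-parameter fits.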

| SMILES | Emax at 30 µM [%] | EC50 [nM] |
| --- | --- | --- |
| Cc1ccc(-c2cnc3c(c2)CN(c2nnc(C#N)cc2C)CC3)cn1 [Example 392, 5-methyl-6-(3-(6-methylpyridin-3-yl)-7,8-dihydro-1,6-naphthyridin-6(5H)-yl)pyridazine-3-carbonitrile] | 85 | 458 |
| Cc1cc(C(=O)Nc2ccncc2)cnc1N1CCc2ncccc2C1 [compound 121, 6-(7,8-dihydro-5H-1,6-naphthyridin-6-yl)-5-methyl-N-(4-pyridyl)pyridine-3-carboxamide] | 70 | 544 |
| Cc1c(C#N)nnc(N2CCc3ncc(-c4ccc(F)nc4)cc3C2)c1C [Example 334, 6-(3-(6-fluoropyridin-3-yl)-7,8-dihydro-1,6-naphthyridin-6(5H)-yl)-4,5-dimethylpyridazine-3-carbonitrile] | 60 | 582 |
| Cc1cc(C(=O)NCc2cnc(Cl)s2)cnc1N1CCc2ncc(-c3cn(C)nc3C)cc2C1 [Example 455, N-((2-chlorothiazol-5-yl)methyl)-6-(3-(1,3-dimethyl-1H-pyrazol-4-yl)-7,8-dihydro-1,6-naphthyridin-6(5H)-yl)-5-methylnicotinamide] | 93 | 581 |
| Cc1nn(C)cc1-c1cnc2c(c1)CN(c1nnc(C#N)c(C)c1C)CC2 [compound 295, 6-(3-(1,3-dimethyl-1H-pyrazol-4-yl)-7,8-dihydro-1,6-naphthyridin-6(5H)-yl)-4,5-dimethylpyridazine-3-carbonitrile] | 95 | 485 |
| Cc1cc(C(=O)N(C)Cc2ccncc2)cnc1N1CCc2ncc(-c3cn(C)nc3C)cc2C1 [Example 454, 6-(3-(1,3-dimethyl-1/-pyrazol-4-yl)-7,8-dihydro-1,6-naphthyridin-6(5H)-yl)-N,5-dimethyl-N-(pyridin-4-ylmethyl)nicotinamide] | 60 | 3900 |
| Cc1ccc(F)c(Oc2cnc3c(c2)CN(c2ncc(C#N)cc2C)CC3)c1 [Example 368, 6-(3-(2-fluoro-5-methylphenoxy)-7,8-dihydro-1,6-naphthyridin-6(5H)-yl)-5-methylnicotinonitrile] | 94 | 1700 |
| Cc1cc(C#N)cnc1N1CCc2ncc(NCC3CCCO3)cc2C1 (stereo not shown) [Example 9] | 76 | 785 |
| Cc1nc(C)c(C)c(N2CCc3ncc(Oc4cccc(F)c4F)cc3C2)n1 [compound 261, 3-(2,3-difluorophenoxy)-6-(2,5,6-trimethylpyrimidin-4-yl)-5,6,7,8-tetrahydro-1,6-naphthyridine] | 72 | 358 |
| Cc1cc(C(=O)N2CCCC2)nnc1N1CCc2ncc(CC(F)(F)F)cc2C1 [Example 582, (5-methyl-6-(3-(2,2,2-trifluoroethyl)-7,8-dihydro-1,6-naphthyridin-6(5H)-yl)pyridazin-3-yl)(pyrrolidin-1-yl)methanone] | 76 | 1910 |
| FC(F)(F)c1cnc2c(c1)CN(c1nc(C3CC3)nc3c1CCCC3)CC2 [compound 266, 2-cyclopropyl-4-(3-(trifluoromethyl)-7,8-dihydro-1,6-naphthyridin-6(5H)-yl)-5,6,7,8-tetrahydroquinazoline] | 38 | 4570 |
| Cc1c(C#N)nnc(N2CCc3ncc(Nc4ccccc4C#N)cc3C2)c1C [compound 41, 6-[3-(2-cyanoanilino)-7,8-dihydro-5H-1,6-naphthyridin-6-yl]-4,5-dimethyl-pyridazine-3-carbonitrile] | 46 | 483 |
| Cc1nc(N2CCOCC2)nc(N2CCc3ncc(Nc4ccnn4C)cc3C2)c1C [compound 276, 6-(5,6-dimethyl-2-morpholinopyrimidin-4-yl)-N-(1-methyl-1H-pyrazol-5-yl)-5,6,7,8-tetrahydro-1,6-naphthyridin-3-amine] | 100 | 377 |
| Cc1cc(F)ncc1-c1cnc2c(c1)CN(c1nccc(C#N)c1C)CC2 [Example 437, 2-(3-(6-fluoro-4-methylpyridin-3-yl)-7,8-dihydro-1,6-naphthyridin-6(5H)-yl)-3-methylisonicotinonitrile] | 47 | 692 |

Compounds with a lower EC50, results first:

| Emax at 30 µM [%] | EC50 [nM] | SMILES |
| --- | --- | --- |
| 89 | 346 | Cc1nn(C)cc1-c1cnc2c(c1)CN(c1nc(CO)nc(C)c1C)CC2 [compound 226, (4-(3-(1,3-dimethyl-1H-pyrazol-4-yl)-7,8-dihydro-1,6-naphthyridin-6(5H)-yl)-5,6-dimethylpyrimidin-2-yl)methanol] |
| 73 | 219 | Cc1cc(C#N)nnc1N1CCc2ncc(Nc3cccnc3F)cc2C1 [Example 399, 6-(3-((2-fluoropyridin-3-yl)amino)-7,8-dihydro-1,6-naphthyridin-6(5H)-yl)-5-methylpyridazine-3-carbonitrile] |
| 89 | 217 | Cc1cc(C(=O)N2CCCC2)nnc1N1CCc2ncc(N3CCCn4nccc43)cc2C1 [Example 488, (6-(3-(6,7-dihydropyrazolo[1,5-a]pyrimidin-4(5H)-yl)-7,8-dihydro-1,6-naphthyridin-6(5H)-yl)-5-methylpyridazin-3-yl)(pyrrolidin-1-yl)methanone] |
| 78 | 200 | Cc1cc(C(=O)N2CC(C)(F)C2)nnc1N1CCc2ncc(-n3cccn3)cc2C1 [Example 569, (6-(3-(1H-pyrazol-1-yl)-7,8-dihydro-1,6-naphthyridin-6(5H)-yl)-5-methylpyridazin-3-yl)(3-fluoro-3-methylazetidin-1-yl)methanone] |
| 89 | 198 | Cc1cnccc1-c1cnc2c(c1)CN(c1nnc(C#N)c(C)c1C)CC2 [compound 77, 4,5-dimethyl-6-[3-(3-methyl-4-pyridyl)-7,8-dihydro-5H-1,6-naphthyridin-6-yl]pyridazine-3-carbonitrile] |
| 80 | 188 | Cc1cc(C#N)cnc1N1CCc2ncc(-c3cnn(CC(F)(F)F)c3)cc2C1 [compound 100, 5-methyl-6-[3-[1-(2,2,2-trifluoroethyl)pyrazol-4-yl]-7,8-dihydro-5H-1,6-naphthyridin-6-yl]pyridine-3-carbonitrile] |
| 61 | 154 | Cc1nc(C)c(C)c(N2CCc3ncc(Nc4cccnc4F)cc3C2)n1 [compound 240, N-(2-fluoropyridin-3-yl)-6-(2,5,6-trimethylpyrimidin-4-yl)-5,6,7,8-tetrahydro-1,6-naphthyridin-3-amine] |
| 89 | 100 | Cc1cc(C(=O)N2CC(C)(F)C2)nnc1N1CCc2ncc(N3CCO[C@H](C)C3)cc2C1 [Example 573, (R)-(3-fluoro-3-methylazetidin-1-yl)(5-methyl-6-(3-(2-methylmorpholino)-7,8-dihydro-1,6-naphthyridin-6(5H)-yl)pyridazin-3-yl)methanone] |
| 91 | 84 | Cc1cc(C#N)cnc1N1CCc2ncc(C3CCC3)cc2C1 [Example 403, 6-(3-cyclobutyl-7,8-dihydro-1,6-naphthyridin-6(5H)-yl)-5-methylnicotinonitrile] |
| 70 | 59 | [2H]C1([2H])Cc2ncc(Nc3ccncc3C)cc2C([2H])([2H])N1c1ncc(C#N)cc1C [Example 610, 5-methyl-6-(3-((3-methylpyridin-4-yl)amino)-7,8-dihydro-1,6-naphthyridin-6(5H)-yl-5,5,7,7-d4)nicotinonitrile] |
| 103 | 40 | Cc1cc2n(n1)CCCN2c1cnc2c(c1)CN(c1ncc(C#N)cc1C)CC2 [Example 385, 5-methyl-6-(3-(2-methyl-6,7-dihydropyrazolo[1,5-a]pyrimidin-4(5H)-yl)-7,8-dihydro-1,6-naphthyridin-6(5H)-yl)nicotinonitrile] |
| 92 | 35 | [2H]C1([2H])Cc2ncc(Nc3cccnc3C)cc2C([2H])([2H])N1c1ncc(C#N)cc1C [Example 602, 5-methyl-6-(3-((2-methylpyridin-3-yl)amino)-7,8-dihydro-1,6-naphthyridin-6(5H)-yl-5,5,7,7-d4)nicotinonitrile] |
| 82 | 13 | [2H]C([2H])(NC(=O)c1cc(C)c(N2CCc3ncc(N4CCCn5nccc54)cc3C2)nn1)c1cscn1 [Example 508, 6-(3-(6,7-dihydropyrazolo[1,5-a]pyrimidin-4(5H)-yl)-7,8-dihydro-1,6-naphthyridin-6(5H)-yl)-5-methyl-N-(thiazol-4-ylmethyl-d2)pyridazine-3-carboxamide] |
| 89 | 11 | Cc1cc(Nc2cnc3c(c2)CN(c2nnc(C#N)cc2C)CC3)c(F)cn1 [Example 615, 6-(3-((5-fluoro-2-methylpyridin-4-yl)amino)-7,8-dihydro-1,6-naphthyridin-6(5H)-yl)-5-methylpyridazine-3-carbonitrile] |
| 82 | 11 | Cc1cc(C(=O)NC2(C#N)CC2)nnc1N1CCc2ncc(N3CCCn4nccc43)cc2C1 [Example 525, N-(1-cyanocyclopropyl)-6-(3-(6,7-dihydropyrazolo[1,5-a]pyrimidin-4(5H)-yl)-7,8-dihydro-1,6-naphthyridin-6(5H)-yl)-5-methylpyridazine-3-carboxamide] |
